Format in all cases: in vivo
Assay [1] relates to switchgrass (Panicum virgahim L.) (SG). Kind of assay: Preemergence herbicide test, soil drench, switchgrass. The conditions noted are these: two weeks after treatment. The protocol: (§1) To illustrate the effectiveness of the previously described substituted oxadiazines of this invention as preemergence herbicides, 300 mg of the chemical was dissolved in a composition comprising 10 mL acetone to which 30 mg of tile emulsifying agent, ethoxylated sorbitan monolaurate, was added. The solution was diluted to 100 mL with distilled water. Ten milliliters of this 3000 ppm solution was diluted to 250 ppm with distilled water. The chemical was applied at the rate of 10 pounds/acre (11.2 kg/ha) by drenchings 46 mL of the 250 ppm solution on the surface of soil in 4½ inch (11.25 cm) plastic pots wherein seeds of the following weeds had been planted:
switchgrass (Panicum virgahim L.) (SG),
(§2) The percent control of the weeds compared to untreated checks was determined two weeks after treatment. TABLE 1 summarizes the results achieved with compounds formulated as indicated above, and the data clearly indicate the good to excellent herbicidal efficacy of compositions of this invention.

Assay [2] concerns green foxtail (Setaria virdis (L.) Beauv.) (GF). Nature of the assay: Preemergence herbicide test, soil drench, green foxtail. The note with it: two weeks after treatment. Here is the method: as §1, with “41⁄2” for “4½”, “planted: green foxtail (Setaria […].) Beauv.) (GF). The percent control of the weeds compared to untreated checks was determined two weeks after treatment. TABLE 1 summarizes the results achieved with compounds formulated as indicated above, and the data clearly indicate the good to excellent herbicidal efficacy of compositions of this invention.” for “planted:”

For assay [3], the system named is velvetleaf (Abutilon theophrasti Medik.) (VL). Kind of assay: Preemergence herbicide test, soil drench, velvetleaf. The conditions noted are these: 10 lbs/A (11.2 kg/ha) soil drench, two weeks after treatment, vs untreated checks; for pest or weed control at 11208.5 g/ha: Abutilon theophrasti, 336 h, read-out: Percent Weed Control VL. The protocol: as §1, with “planted: velvetleaf (Abutilon theophrasti Medik.) (VL), The percent control of the weeds compared to untreated checks was determined two weeks after treatment. TABLE 1 summarizes the results achieved with compounds formulated as indicated above, and the data clearly indicate the good to excellent herbicidal efficacy of compositions of this invention.” for “planted:”

For assay [4], the system named is tall morningglory (Ipomoea purpurea (L.) Roth) (TM). Kind of assay: Preemergence herbicide test, soil drench, tall morningglory. The note with it: 10 lbs/A (11.2 kg/ha) soil drench, two weeks after treatment, vs untreated checks; for pest or weed control at 11208.5 g/ha: Ipomoea, 336 h, read-out: Percent Weed Control TM. Here is the method: as §1, with “planted: tall morningglory (Ipomoea purpurea (L.) Roth) (TM), The percent control of the weeds compared to untreated checks was determined two weeks after treatment. TABLE 1 summarizes the results achieved with compounds formulated as indicated above, and the data clearly indicate the good to excellent herbicidal efficacy of compositions of this invention.” for “planted:”

In assay [5] the test system is prickly sida (Sida spinosa L.) (PS). Nature of the assay: Preemergence herbicide test, soil drench, prickly sida. The note with it: two weeks after treatment. Here is the method:
To illustrate the effectiveness of the previously described substituted oxadiazines of this invention as preemergence herbicides, 300 mg of the chemical was dissolved in a composition comprising 10 mL acetone to which 30 mg of tile emulsifying agent, ethoxylated sorbitan monolaurate, was added. The solution was diluted to 100 mL with distilled water. Ten milliliters of this 3000 ppm solution was diluted to 250 ppm with distilled water. […]
prickly sida (Sida spinosa L.) (PS),
as §2

For assay [6], the system named is barnyardgrass (Echinochloa crus-galli (L.) Beauv.) (BG). Nature of the assay: Preemergence herbicide test, soil drench, barnyardgrass. The conditions noted are these: two weeks after treatment. The protocol:
as §1, with “planted: barnyardgrass (Echinochloa crus-galli (L.) Beauv.) (BG), and The percent control of the weeds compared to untreated checks was determined two weeks after treatment. TABLE 1 summarizes the results achieved with compounds formulated as indicated above, and the data clearly indicate the good to excellent herbicidal efficacy of compositions of this invention.” for “planted:”

[7] abbreviates: Panicum, 336 h, 10 lbs/A (11.2 kg/ha) soil drench, vs untreated checks, read-out: Percent Weed Control SG.
The mark [8] stands for this setting: Setaria, 336 h, 10 lbs/A (11.2 kg/ha) soil drench, vs untreated checks, read-out: Percent Weed Control GF.
Where [9] appears, read: Sida spinosa, 336 h, 10 lbs/A (11.2 kg/ha) soil drench, vs untreated checks, read-out: Percent Weed Control PS.
[10] abbreviates: Echinochloa crus-galli, 336 h, 10 lbs/A (11.2 kg/ha) soil drench, vs untreated checks, read-out: Percent Weed Control BG.
Where [11] appears, read: 10 lbs/A (11.2 kg/ha) soil drench, vs untreated checks.
The mark [12] stands for this setting: 5 lbs/A (footnote for 32 and 33).

Consider `FC(F)(F)C1=NC(C(F)(F)F)(C(F)(F)F)N=C(c2ccccc2)O1` [Compound 1, 2-phenyl-4,4,6-tris(trifluoromethyl)-4H-1,3,5-oxadiazine], for which the pest or weed control at 11208.5 g/ha is 0% in assay [1] (setting [7]); 0% in assay [2] (setting [8]); 100% in assay [3]; 100% in assay [4]; 100% in assay [5] (setting [9]); 0% in assay [6] (setting [10]).
As for `FC(F)(F)C1=NC(C(F)(F)F)(C(F)(F)F)N=C(c2ccc(Br)cc2)O1` [Compound 2, 2-(4-bromophenyl)-4,4,6-tris(trifluoromethyl)-4H-1,3,5-oxadiazine], the pest or weed control at 11208.5 g/ha in assay [1] (setting [7]), in assay [2] (setting [8]), in assay [3], in assay [4], in assay [5] (setting [9]) and in assay [6] (setting [10]) was 100% throughout.
Turning to `Fc1ccccc1C1=NC(C(F)(F)F)(C(F)(F)F)N=C(C(F)(F)F)O1` [Compound 3, 2-(2-fluorophenyl)-4,4,6-tris(trifluoromethyl)-4H-1,3,5-oxadiazine], the pest or weed control at 11208.5 g/ha in assay [1] (setting [7]) amounted to 30%; in assay [2] (setting [8]), 40%; in assay [3], 100%; in assay [4], 0%; in assay [5] (setting [9]), 0%; in assay [6] (setting [10]) it was 0%.
Turning to `FC(F)(F)C1=NC(C(F)(F)F)(C(F)(F)F)N=C(c2cccc(C(F)(F)F)c2)O1` [Compound 7, 2,4,4-tris(trifluoromethyl)-6-{(3-trifluoromethyl)phenyl}-4H-1,3,5-oxadiazine], the “Percent Weed Control SG” value in assay [1] (setting [11]) stood at 100%. Moreover, the “Percent Weed Control GF” value in assay [2] (setting [11]) stood at 100%. For the same molecule, the “Percent Weed Control VL” value in assay [3] was found to be 100%. The “Percent Weed Control TM” value in assay [4] is 100%. The “Percent Weed Control PS” value in assay [5] (setting [11]) is recorded as 100%. Further, the “Percent Weed Control BG” value in assay [6] (setting [11]) is given as 100%.
As for `FC(F)(F)Oc1ccc(C2=NC(C(F)(F)F)(C(F)(F)F)N=C(C(F)(F)F)O2)cc1` [Compound 8, 2-{4-(trifluoromethoxy)phenyl}-4,4,6-tris(trifluoromethyl)-4H-1,3,5-oxadiazine], the pest or weed control at 11208.5 g/ha in assay [1] (setting [7]), in assay [2] (setting [8]), in assay [3], in assay [4], in assay [5] (setting [9]) and in assay [6] (setting [10]) was 100% in each case.
As for `Nc1ccc(C2=NC(C(F)(F)F)(C(F)(F)F)N=C(C(F)(F)F)O2)cc1` [Compound 9, 2-(4-aminophenyl)-4,4,6-tris(trifluoromethyl)-4H-1,3,5-oxadiazine], the pest or weed control at 11208.5 g/ha in assay [1] (setting [7]) was found to be 90%; in assay [2] (setting [8]), 90%; in assay [3] it was 90%; in assay [4], 0%; in assay [5] (setting [9]) it was 0%; in assay [6] (setting [10]), 0%.
As to `O=[N+]([O-])c1ccc(C2=NC(C(F)(F)F)(C(F)(F)F)N=C(C(F)(F)F)O2)cc1` [Compound 10, 2-(4-nitrophenyl)-4,4,6-tris(trifluoromethyl)-4H-1,3,5-oxadiazine], the pest or weed control at 11208.5 g/ha came to 80% in assay [1] (setting [7]); 80% in assay [2] (setting [8]); 80% in assay [3]; 50% in assay [4]; 80% in assay [5] (setting [9]); 80% in assay [6] (setting [10]).
As for `FC(F)(F)C(F)(F)C1=NC(C(F)(F)F)(C(F)(F)F)N=C(c2ccccc2)O1` [Compound 11, 2-(pentafluoroethyl)-6-phenyl-4,4-bis(trifluoromethyl)-4H-1,3,5-oxadiazine], the pest or weed control at 11208.5 g/ha in assay [1] (setting [7]) was 0%; in assay [2] (setting [8]), 50%; in assay [3], 100%; in assay [4], 100%; in assay [5] (setting [9]), 100%; in assay [6] (setting [10]) it was 0%.
For `O=Cc1ccc(C2=NC(C(F)(F)F)(C(F)(F)F)N=C(C(F)(F)C(F)(F)F)O2)cc1` [Compound 31, 4-{6-(pentafluoroethyl)-4,4-bis(trifluoromethyl)-4H-1,3,5-oxadiazin-2-yl}-benzaldehyde], the pest or weed control at 11208.5 g/ha in assay [6] (setting [10]) stood at 100%.
With `FC(F)C1=NC(C(F)(F)F)(C(F)(F)F)N=C(c2cccc(C(F)(F)F)c2)O1` [Compound 32, 2-(difluoromethyl)-4,4-bis(trifluoromethyl)-6-(3-trifluoromethylphenyl)-4H-1,3,5-oxadiazine], the pest or weed control at 5604.25 g/ha in assay [1] (Panicum, pre-emergence, 336 h, 5 lbs/A (footnote for 32 and 33), read-out: Percent Weed Control SG) is 0%; in assay [2] (Setaria, pre-emergence, 336 h, 5 lbs/A (footnote for 32 and 33), read-out: Percent Weed Control GF), 100%; in assay [5] (Sida spinosa, pre-emergence, 336 h, 5 lbs/A (footnote for 32 and 33), read-out: Percent Weed Control PS), 100%; in assay [6] (Echinochloa crus-galli, pre-emergence, 336 h, 5 lbs/A (footnote for 32 and 33), read-out: Percent Weed Control BG) it was 80%.
Consider `FC(F)C1=NC(C(F)(F)F)(C(F)(F)F)N=C(c2ccc(C(F)(F)F)cc2)O1` [Compound 33, 21-(dfluoromethyl)-4,4-bis(trifluoromethyl)-6-(4-trifluoromethylphenyl)-4H-1,3,5-oxadiazine], for which the “Percent Weed Control GF” value in assay [2] (setting [12]) is reported as 40%. Further, the “Percent Weed Control PS” value in assay [5] (setting [12]) was determined as 100%. Also, the “Percent Weed Control BG” value in assay [6] (setting [12]) is 20%.

The values are drawn from patent US6514911B1, “Substituted oxadiazines useful as pesticides” (Uniroyal Chemical Company, Inc., priority 2002, dated 2003).
